Measured values as given in patent US20210300932A1, “CYCLIC PEPTIDES TARGETING ALPHA-4-BETA-7 INTEGRIN” (Zealand Pharma A/S, priority 2015, published 2021).

What was measured:
[1] = mouse, in vivo
Method: (§3) In Vivo Pharmacokinetic Assessments in Rodents
(§4) Oral bioavailability of test compounds was conducted by assessing plasma exposure of following one or two oral doses in mice and, in some cases, comparing said plasma exposure with that following a single intravenous dose of the same compound.
(§5) Body weights were recorded on the day of dosing.
(§6) Food restriction: Animals dosed p.o. were deprived of food overnight and fed ˜2 h following dosing.
(§7) Dosing: The formulation containing the test compound were administered p.o. by gavage with disposable feeding needles.
(§8) Sample collection: Terminal blood and tissue samples were collected under O2/CO2 anesthesia by cardiac puncture.
(§9) Sample processing/storage: All blood samples were transferred into K2EDTA tubes on wet ice and centrifuged within 5 min (3200×g for 5 min at 4° C.) to obtain plasma. Samples were stored frozen at −80° C. until bioanalysis.
(§10) Bioanalytical Method Qualification and Sample Analysis:
(§11) Instrumentation: AB Sciex API 4000 Q-TRAP MS/MS system equipped with an Agilent LC system with a binary pump, a solvent degasser, a thermostatted column compartment, a CTC autosampler and a divert valve installed between the column and mass spectrometer inlet.

[2] = tested on: DSS experimental model of ulcerative colitis; assay: 8-Day efficacy study in DSS model (therapeutic); assay type: in vivo, C57BI/6 mice; details: 40 mg/kg p.o.
From the text: The STDs in ascending order bracketing the study samples and dosing solutions • 1. The study samples • 2.
Description of Tested Compounds
Animals. Female C57BI/6 mice (Charles River, St-Constant, Qc), weighting 16-19 g at delivery were used for this study. Following arrival in the animal facility, all animals were subjected to a general health evaluation. An acclimation period of 7-14 days was allowed before the beginning of the study.
Oral dosing of the test article and the vehicle. From Day 5 to Day 8, nacellins and the vehicle were administered as a single slow bolus (over approximately 5 seconds) via oral route (p.o.), according to the procedure of administration of solution by gavage: the animal was firmly restrained. A bulb-tipped gastric gavage needle of 22G was passed through the side of the mouth and was advanced towards the oesophagus. The test articles and the vehicle were dosed orally at 5 mL/kg.
Intraperitoneal dosing of the test articles and the vehicle. On day 5, DATK32 antibody was administered in only on Day 5, as a single slow bolus (over approximately 5 seconds) via the i.p. route. […] Intraperitoneal administration was performed accordingly to the following procedure: the mouse was restrained manually and held with the head and body tilted downward. The tip of the needle (27 G) was inserted through the skin and just past the abdominal wall. A short pull back of the plunger of the syringe was done prior to administration of the solution to make sure that the syringe was not inserted in any abdominal organ (fluid would be pulled back into the syringe in this case).
Inflammation Score. Once the mouse was euthanized, the colon was collected and its length was measured. Lesion length was also measured. Colon inflammation was scored based on severity of oedema and ulceration.
Disease Activity Index (DAI) assessment. Body weight and DAI were measured on Day 5 in order to distribute DSS-treated animals in two uniform groups prior dosing. Specific symptoms associated to UC were scored based on the severity of each particular symptoms: 1—blood in stool (negative hemoccult, positive hemoccult, blood traces in stool visible, rectal bleeding); 2—stool consistency (normal, soft but still formed, very soft, diarrhea); 3—posture and fur (normal; ruffled fur; ruffled fur combined to slight hunched posture and slight dehydration; ruffled fur combined to hunched posture, dehydration and altered walking; moribund (euthanasia is mandatory before the animal reach this point). The overall DAI score was the sum of the three parameters (maximum score 9). Body weight measurement and DAI assessment were performed also on Day 8 to evaluate the effect of the treatments.
Collection of samples. On Day 8, five hours after ET02451-01, ET02452-01 and vehicle dosing, the animals were euthanized by cardiac puncture under general anesthesia, according to the “Guide to the Care and Use of Experimental Animals” published by the CCAC. Blood was transferred in a Sarstedt tube containing EDTA. Mesenteric and peripheral (inguinal, auxiliary and brachial) lymph nodes were collected and transferred on ice in corresponding tubes containing cold PBS. Nodes were kept on ice until tissue preparation.
Cell population labeling. Blood was withdrawn by cardiac puncture and collected on EDTA-coated tubes. Mensenteric lymph nodes (MLN) and peripheral lymph nodes (PLN) were also collected. Mononuclear cells from the tissues will be isolated using density gradient (Lympholyte) and they were stained with fluorescent antibodies. […] After washes, cells were fixed using BD Fix Solution. Percentage of different subpopulations of T lymphocytes were then analysed using FACSCalibur cytometer. Antibodies employed were the same as listed for the single-dose PD studies above.

[3] = In vivo pharmacokinetic assessments in rodents; details: for F: plasma
Method: as §3, §4, §5, §6, §7, §8, §9, §10, §11

in vivo = details: male, CD-1, mouse
Method: as §3, §4, §5, §6, §7, §8, §9, §10, §11

[4] = molecular target: T1, Recombinant human integrin α4β7 (Homo sapiens, UniProt P13612+P26010, DEL724-798); assay: Integrin α4β7—MAdCAM-1 ELISA competition assay; assay type: binding; details: ratio a4b1 ELISA IC50 / a4b7 ELISA IC50
T1 construct: purchased R&D Systems 5397-A3-050
T1 sequence (P13612 34-977 limits assumed): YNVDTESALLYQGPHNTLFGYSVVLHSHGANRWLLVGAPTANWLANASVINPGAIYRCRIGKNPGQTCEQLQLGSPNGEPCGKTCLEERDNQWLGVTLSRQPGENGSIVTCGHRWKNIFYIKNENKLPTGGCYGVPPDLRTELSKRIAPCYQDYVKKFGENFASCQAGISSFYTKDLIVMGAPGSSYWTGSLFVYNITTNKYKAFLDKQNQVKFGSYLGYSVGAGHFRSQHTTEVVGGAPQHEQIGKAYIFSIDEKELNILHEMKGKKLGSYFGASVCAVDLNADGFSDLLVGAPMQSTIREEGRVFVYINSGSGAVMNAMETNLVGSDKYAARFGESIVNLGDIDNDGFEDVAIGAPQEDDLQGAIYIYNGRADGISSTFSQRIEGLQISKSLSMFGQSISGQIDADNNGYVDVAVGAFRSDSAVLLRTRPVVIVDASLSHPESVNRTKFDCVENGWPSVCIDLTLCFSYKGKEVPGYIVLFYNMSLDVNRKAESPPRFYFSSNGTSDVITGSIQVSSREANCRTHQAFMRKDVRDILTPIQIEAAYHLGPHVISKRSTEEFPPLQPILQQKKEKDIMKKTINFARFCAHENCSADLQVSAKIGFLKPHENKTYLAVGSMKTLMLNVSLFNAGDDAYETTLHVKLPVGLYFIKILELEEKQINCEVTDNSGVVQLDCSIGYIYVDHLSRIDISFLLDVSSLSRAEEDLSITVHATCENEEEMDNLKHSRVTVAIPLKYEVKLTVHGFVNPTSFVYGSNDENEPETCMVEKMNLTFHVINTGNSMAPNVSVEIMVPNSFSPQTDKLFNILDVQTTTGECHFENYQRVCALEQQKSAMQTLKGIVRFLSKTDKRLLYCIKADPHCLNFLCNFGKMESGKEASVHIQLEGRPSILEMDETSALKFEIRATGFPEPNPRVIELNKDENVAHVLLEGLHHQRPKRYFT
T1 sequence (P26010 20-723 limits assumed): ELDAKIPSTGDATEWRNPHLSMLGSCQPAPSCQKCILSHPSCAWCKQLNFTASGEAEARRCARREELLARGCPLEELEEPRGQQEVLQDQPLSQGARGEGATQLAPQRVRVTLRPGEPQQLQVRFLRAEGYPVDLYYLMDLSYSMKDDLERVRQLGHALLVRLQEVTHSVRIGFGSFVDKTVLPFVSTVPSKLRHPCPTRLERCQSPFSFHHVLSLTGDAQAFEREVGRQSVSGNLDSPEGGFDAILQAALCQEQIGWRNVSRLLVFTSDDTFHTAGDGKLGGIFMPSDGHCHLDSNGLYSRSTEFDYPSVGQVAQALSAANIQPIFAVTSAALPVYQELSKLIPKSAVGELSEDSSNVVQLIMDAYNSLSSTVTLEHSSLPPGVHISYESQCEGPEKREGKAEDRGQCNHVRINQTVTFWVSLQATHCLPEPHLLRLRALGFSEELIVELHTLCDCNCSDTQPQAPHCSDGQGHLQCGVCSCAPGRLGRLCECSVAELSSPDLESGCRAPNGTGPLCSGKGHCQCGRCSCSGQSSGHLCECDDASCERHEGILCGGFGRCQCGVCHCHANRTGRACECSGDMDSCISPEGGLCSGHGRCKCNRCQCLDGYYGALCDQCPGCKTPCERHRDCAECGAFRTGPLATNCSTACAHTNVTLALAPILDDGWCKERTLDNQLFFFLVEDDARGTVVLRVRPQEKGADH
Method: Integrin α4β7—MAdCAM-1 ELISA Competition Assay
Protocol • 1.1 Preparation of α4β7. • 1.1.1 Add 500 μL of PBS to the vial. […] Mix by inversion before use. Keep at 4° C. for up to 1 month. • Final concentration is 100 pg/mL • 1.1 Preparation of MadCam-Fc. • 1.1.1 Add 500 μL of Assay buffer to the vial. […] Mix by inversion before use.

CYP1A2 = molecular target: T2, CYP1A2 (Homo sapiens, UniProt P05177); assay: in vitro
T2 sequence (P05177 1-516): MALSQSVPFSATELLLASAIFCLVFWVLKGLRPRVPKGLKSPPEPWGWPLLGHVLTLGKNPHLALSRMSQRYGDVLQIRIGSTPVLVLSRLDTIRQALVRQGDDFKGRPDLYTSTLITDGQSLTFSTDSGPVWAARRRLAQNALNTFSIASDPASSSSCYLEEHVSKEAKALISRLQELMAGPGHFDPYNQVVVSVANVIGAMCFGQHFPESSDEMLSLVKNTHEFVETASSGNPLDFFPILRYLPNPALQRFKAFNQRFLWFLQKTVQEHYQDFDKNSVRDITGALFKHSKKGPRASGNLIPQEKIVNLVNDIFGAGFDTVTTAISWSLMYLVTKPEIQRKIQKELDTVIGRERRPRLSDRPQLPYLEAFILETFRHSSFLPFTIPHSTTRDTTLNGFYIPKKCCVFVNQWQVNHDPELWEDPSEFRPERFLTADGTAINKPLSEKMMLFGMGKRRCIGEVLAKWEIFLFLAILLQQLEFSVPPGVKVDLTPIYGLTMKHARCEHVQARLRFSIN
Method: (§1) Cytochrome P450 Inhibition Assay
(§2) Analyses were performed using standard LC/MS/MS protocols.

CYP3A4 = CYP3A4 (Homo sapiens, UniProt P08684); assay: in vitro
CYP3A4, sequence (P08684 whole entry): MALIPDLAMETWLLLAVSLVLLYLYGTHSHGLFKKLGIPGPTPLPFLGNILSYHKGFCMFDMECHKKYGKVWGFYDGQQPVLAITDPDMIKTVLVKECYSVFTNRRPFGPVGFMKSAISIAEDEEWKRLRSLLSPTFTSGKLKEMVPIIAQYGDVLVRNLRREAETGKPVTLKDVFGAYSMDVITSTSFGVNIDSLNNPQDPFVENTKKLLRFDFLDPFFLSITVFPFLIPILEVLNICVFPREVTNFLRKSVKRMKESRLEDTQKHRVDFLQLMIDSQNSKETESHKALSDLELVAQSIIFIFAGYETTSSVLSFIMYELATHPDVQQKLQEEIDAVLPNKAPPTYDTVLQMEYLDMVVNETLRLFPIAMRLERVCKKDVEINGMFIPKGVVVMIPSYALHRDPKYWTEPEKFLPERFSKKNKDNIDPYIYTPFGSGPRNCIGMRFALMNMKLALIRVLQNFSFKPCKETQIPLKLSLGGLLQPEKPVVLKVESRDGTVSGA
Method: as §1, §2

CYP2C9 = CYP2C9 (Homo sapiens, UniProt P11712); assay: in vitro
CYP2C9, sequence (P11712 whole entry): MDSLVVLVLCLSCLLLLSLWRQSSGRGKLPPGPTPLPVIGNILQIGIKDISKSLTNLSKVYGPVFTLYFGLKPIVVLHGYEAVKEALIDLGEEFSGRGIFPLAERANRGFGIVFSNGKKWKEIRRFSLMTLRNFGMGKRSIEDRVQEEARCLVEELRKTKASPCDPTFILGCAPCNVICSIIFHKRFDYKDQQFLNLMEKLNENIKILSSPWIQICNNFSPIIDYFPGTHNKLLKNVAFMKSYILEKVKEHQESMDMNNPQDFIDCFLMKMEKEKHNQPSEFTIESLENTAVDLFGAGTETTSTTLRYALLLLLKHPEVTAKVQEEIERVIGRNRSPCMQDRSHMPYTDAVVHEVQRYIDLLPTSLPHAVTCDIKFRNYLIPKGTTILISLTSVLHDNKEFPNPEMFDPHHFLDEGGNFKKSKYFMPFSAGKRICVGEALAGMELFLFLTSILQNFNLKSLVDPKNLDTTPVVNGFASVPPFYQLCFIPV
Method: as §1, §2

CYP2D6 = CYP2D6 (Homo sapiens, UniProt P10635); assay: in vitro
CYP2D6, sequence (P10635 whole entry): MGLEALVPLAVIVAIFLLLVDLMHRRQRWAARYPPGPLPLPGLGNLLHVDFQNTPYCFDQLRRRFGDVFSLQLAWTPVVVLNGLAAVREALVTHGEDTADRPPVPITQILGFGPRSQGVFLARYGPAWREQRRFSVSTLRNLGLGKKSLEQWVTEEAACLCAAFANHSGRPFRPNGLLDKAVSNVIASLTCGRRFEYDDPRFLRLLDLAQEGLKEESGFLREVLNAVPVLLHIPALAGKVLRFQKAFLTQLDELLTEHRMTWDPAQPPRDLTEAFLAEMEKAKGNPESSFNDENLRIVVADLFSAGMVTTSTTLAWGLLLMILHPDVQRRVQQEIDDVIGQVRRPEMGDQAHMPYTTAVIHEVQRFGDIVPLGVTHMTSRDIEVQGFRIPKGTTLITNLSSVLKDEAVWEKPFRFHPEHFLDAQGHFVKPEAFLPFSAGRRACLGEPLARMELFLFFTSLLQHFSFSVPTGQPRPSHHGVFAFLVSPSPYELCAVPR

plasma proteins [5] = assay: in vitro; details: CD-1, mouse
Method: (§12) An equilibrium dialysis (HTDialysis) method was used employing 50% plasma collected from CD-1 mice or Sprague-Dawley rats and incubated with K2EDTA. Test articles were assessed at 1 microM concentration in three replicates. Incubation time as 5 hours and plasma and buffer standards were assessed using LC/MS/MS. Percentage recovery was calculated as (Cbuffer+Cplasma)/[average]Cinitial, [average]Cinitial being measured in triplicate from the test samples prior to dialysis. Percentage of compound unbound was calculated as Cbuffer/Cplasma.

in vitro = details: Control buffer/Buffer at 0.1 uM % Recovery
Method: as §12

plasma proteins [6] = assay: Plasma protein binding determination, equilibrium dialysis, mouse plasma; details: CD-1, mouse, % recovery, Mouse plasma, equilibrium dialysis
Method: as §12

[7] = as above; details: first table; buffer/buffer control
Method: as §12

## CC(C)C[C@@H]1NC(=O)c2ccc(-c3ccc(N4CCNCC4)cc3)c(c2)CNC(=O)[C@@H]2CCCN2[C@H](C(=O)NC(C)(C)C)[C@H](C)NC(=O)[C@H]([C@@H](C)O)NC(=O)[C@H](CC(=O)O)NC1=O [Compound No. 340]
[1]
  oral bioavailability (in words): significant absorption from the gut and systemic exposure
[2]
  CD3+CD4+α4β7+ cell population in mesenteric lymph nodes: significant decrease
[2]; Day 5 to Day 8
  reduction of lesion length vs vehicle group: significantly reduced the lesion length
[2]; b.i.d., Day 5 to Day 8
  reduction of DAI score on Day 8 vs DSS+vehicle: 15%
[2]; vehicle group 40%
  lesion/colon length: 12%
[3]; following oral dosing 40 mg/kg
  half-life in the liver: ~8 h
[3]; male, CD-1, mouse, in vivo, iv, 5 mg/kg
  AUC(0-t): 778 ng·h/mL
[3]; male, CD-1, mouse, in vivo, po, 40 mg/kg
  Tmax: 5 min
[3]; male, CD-1, mouse, in vivo, po, 40 mg/kg, elimination half-life in plasma, following oral dosing 40 mg/kg
  half-life: ~30 min
[3]; male, CD-1, mouse, in vivo, po, 40 mg/kg, half-life in colon, following oral dosing 40 mg/kg
  half-life: > 1260 min
[3]; i.v. 5 mg/kg
  F: 100%
[3]; p.o. 40 mg/kg
  F: 11.0%
In vivo
  bioavailability: ~11%
In vivo; iv, 5 mg/kg
  AUC(0-inf): 778 ng·h/mL
  C0: 1410 ng/mL
  Cmax: 1330 ng/mL
  MRT inf: 41.9 min
  Vd: 4.49 L/kg
  clearance: 107 mL/min/kg
  half-life: 120 min
In vivo; po, 40 mg/kg
  AUC(0-inf): 690 ng·h/mL
  AUC(0-t): 686 ng·h/mL
  MRT inf: 41.3 min
  half-life: 32.2 min

## CC(C)C[C@@H]1NC(=O)[C@H]2CCCCN2C(=O)[C@H](Cc2ccc(O)cc2)N(C)C(=O)[C@@H]2CCCN2[C@H](C(=O)NC(C)(C)C)[C@H](C)NC(=O)[C@H]([C@@H](C)O)NC(=O)[C@H](CC(=O)O)NC1=O [Compound 148]
[4]
  Selectivity ELISA: 1.2

## COc1ccccc1-c1ccccc1C[C@@H]1NC(=O)[C@@H]2CCCN2[C@H](C(=O)NC(C)(C)C)[C@H](C)NC(=O)[C@H]([C@@H](C)O)NC(=O)[C@H](CC(=O)O)NC(=O)[C@H](CC(C)C)NC(=O)[C@H]2CCCCN2C1=O [Compound 135]
[4]
  Selectivity ELISA: 4.9

## CC[C@H](C)[C@@H]1NC(=O)[C@H](CC(=O)O)NC(=O)[C@H](CC(C)C)NC(=O)[C@H](Cc2ccc3ccccc3c2)NC(=O)[C@@H]2CCCN2[C@H](C(=O)NC(C)(C)C)[C@H](C)NC1=O [Compound No. 15]
CYP1A2
  IC50: > 15 µM
CYP3A4
  IC50: > 15 µM
CYP2C9
  IC50: > 15 µM
CYP2D6
  IC50: > 15 µM
Plasma proteins [5]; % unbound (Cbuffer/Cplasma) 1
  fraction unbound at 5 hours, 1 microM: 0.1
Plasma proteins [5]; % unbound (Cbuffer/Cplasma) 2
  fraction unbound at 5 hours, 1 microM: 0.093
Plasma proteins [5]; % unbound (Cbuffer/Cplasma) 3
  fraction unbound at 5 hours, 1 microM: 0.136
In vitro
  recovery at 5 hours, 0.1 uM: 70%
Plasma proteins [6]; first table
  recovery at 5 hours, 1 microM: 103%
Plasma proteins [6]; second table
  recovery at 5 hours, 1 microM: 143%
[7]
  Control buffer/Buffer at 0.1 uM Cdonor/Creciever: 86%
